Like-named read-outs stand apart in the source and are kept apart here.
Key:
mIDH1R132H [1] = molecular target: T1, mIDH1R132H (Homo sapiens, UniProt O75874, R132H); experiment: enzymatic inhibition assay with commercial IDH1 (R132H) kit; format: biochemical; conditions: for Amax (fit parameter) / Amin (fit parameter) / Hill slope: Hill fit; for Amax (fit parameter) / Amin (fit parameter) / Hill slope / IC50: parentheses = 95% CI; for IC50: non-labeled compounds, n = 3, read-out: IC50 for suppression of mIDH1R132H
T1 construct: purchased BPS Bioscience, San Diego, CA, USA
T1 sequence (O75874 whole entry R132H): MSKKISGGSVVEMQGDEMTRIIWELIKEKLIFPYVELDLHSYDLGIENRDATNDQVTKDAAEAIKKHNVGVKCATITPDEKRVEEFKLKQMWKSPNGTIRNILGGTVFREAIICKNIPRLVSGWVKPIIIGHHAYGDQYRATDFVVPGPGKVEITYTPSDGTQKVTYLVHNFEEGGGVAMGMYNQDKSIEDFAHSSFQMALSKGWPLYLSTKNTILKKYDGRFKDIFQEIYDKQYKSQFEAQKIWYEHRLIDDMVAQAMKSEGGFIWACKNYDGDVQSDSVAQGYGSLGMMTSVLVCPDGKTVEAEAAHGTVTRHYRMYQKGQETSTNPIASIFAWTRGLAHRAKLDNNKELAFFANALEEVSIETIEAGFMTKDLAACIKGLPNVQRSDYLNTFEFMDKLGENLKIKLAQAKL
Procedure: The inhibitory activity of the candidate probes against mIDH1 was evaluated by enzymatic assays with serially diluted solutions of the non-labeled compounds using a commercially available assay kit (IDH1 (R132H) from BPS Bioscience, San Diego, CA, USA). IC50 values were determined with GraphPad Prism 4.00 by fitting the resulting dose-response curves with the Hill function.
Data are shown as mean ± standard deviation (n = 3). For additional fit parameters and 95% confidence intervals, see Table S12 in Section S4.1.4 of Supplementary Materials. TEXT PRINTED IN THE PICTURE: (S)-2: IC50 [nM]: 102 | (R)-2: IC50 [nM]: 1358 | 4: IC50 [nM]: 713 | 5: IC50 [nM]: 8279
4.1.4. Inhibitory potency (IC50)
Values in parenthesis indicate 95% confidence intervals.

[2] = lipophilicity by shake-flask method (n-octanol/water or PBS); format: physicochemical; conditions: triplicate; for logD: n-octanol/PBS pH 7.4, shake-flask, read-out: logD7.4 Exp. Determined; for logP: n-octanol/water, shake-flask
Procedure: As a measure for the lipophilicity of the four radiolabeled probes, their partition coefficients (logP) and distribution coefficients at pH 7.4 (logD7.4) were determined by the shake-flask method. Table 1 summarizes the results of these experiments and compares them with the predicted logD7.4 values calculated using the ADMETlab platform.
A solution of the corresponding radiotracer in DMSO (1 µL) was added to a mixture of n-octanol and PBS (pH = 7.4) or water (750 µL of each) in a 2 mL Eppendorf vial and the vial was vortexed for 2 min and centrifuged for another 2 min to separate the two phases. A total of 300 µL of the upper n-octanol phase was then carefully removed from the top, while 300 µL of the aqueous phase was removed by piercing the bottom of the vial with a syringe and cannula to avoid contact with the organic phase. Both fractions were transferred into fresh vials and counted in a gamma counter to determine the ratio between the activity in the organic and the aqueous phase. All measurements were performed in triplicate and the results are expressed as mean ± standard deviation of the logarithm of the partition coefficient between n-octanol and water (logP) or the logarithm of the distribution coefficient between n-octanol and PBS (logD7.4), respectively.

U87-mIDH cells = experiment: cellular uptake in U87-mIDH cells; format: cell-based, human; conditions: U87-mIDH cells; for cellular uptake: incubation 1 h
Procedure: (§1) Consistent with this assumption, uptake of [^18F]4 and, to a lesser extent, the ^18F-fluoroethoxylated analog [^18F]5 by both cell lines was considerably higher than that of (S)-[^18F]2.
(§2) Human glioblastoma cells with a c.395G>A knock-in mutation encoding mIDH1R132H (HTB-14IG™) and the corresponding wildtype cells (HTB-14™) were purchased from the American Type Culture Collection (ATCC). The cells were grown under standard culture conditions (5% CO2 and 95% air at 37 °C) in Eagle’s Minimum Essential Medium (MEM) supplemented with 10% fetal bovine serum (FBS) and antibiotics (penicillin–streptomycin mixed solution, Gibco, Thermo Fisher Scientific, Oberhausen, Germany).
(§3) For the cellular uptake studies, 1.5 × 10^5 cells were seeded into gelatin-coated 12-well transwell plates and incubated in 1 mL MEM (without FBS and antibiotics) containing 18.5 kBq (0.5 µCi) of the corresponding radiotracer. After incubation at 21 °C for 1 h, the supernatant was collected, the cells were lysed with 40 mM NaOH and the radioactivity of both fractions was measured with a gamma counter. The total protein concentration of the cell lysate was measured by a bicinchoninic acid (BCA) assay. The radiotracer uptake was calculated as the ratio of radioactivity in the cell fraction and the supernatant and normalized by protein content (% uptake/100 µg protein). Statistical analysis of the results was performed with Originlab Pro 2023b using two-tailed t-tests with a significance level of 0.05 to identify significant differences between groups.

[3] = stability of reference compounds in DMSO; format: physicochemical; conditions: room temperature, at least 28 h, non-labeled reference compounds
Procedure: The in vitro stability of the radiolabeled probes was evaluated by incubation studies with phosphate-buffered saline (PBS) and rat serum.
A solution of the corresponding reference compound in DMSO (1 mg/mL) was incubated at room temperature for 28–30 h, during which aliquots were removed every few hours and analyzed by analytical HPLC. The fraction of intact reference compound at each time point was calculated by dividing the peak area of the reference compound by the total area of all peaks in the chromatogram and plotted as a function of time.

U87-WT cells = experiment: cellular uptake in U87-WT cells; format: cell-based, human; conditions: incubation 1 h
Procedure: as §1, §2, §3

mIDH1R132H [4] = molecular target: T1, mIDH1R132H; conditions: cited from earlier work

Row | SMILES | Amax (fit parameter) (mIDH1R132H [1]) | Amin (fit parameter) (mIDH1R132H [1]) | Hill slope (mIDH1R132H [1]) | IC50 (mIDH1R132H [1]) | logD [2] | cellular uptake (U87-mIDH cells) | decomposition in DMSO [3] | also measured
1 | C[C@@H](Nc1ccc(C#N)n(C)c1=O)c1cc2cc(F)ccc2[nH]c1=O [(R)-2, (R)-5-[{1-(6-Fluoro-2-oxo-1,2-dihydroquinoline-3-yl)ethyl}amino]-1-methyl-6-oxo-1,6-dihydropyridine-2-carbonitrile] | 79 (72−87) % | 28 (25−31) % | 3.0 (1.3−4.8) | 1.36 µM |  |  |  | fold higher IC50 value relative to (S)-enantiomer (mIDH1R132H [1]): > 10 fold
2 | C[C@@H](Nc1ccc(C#N)n(C)c1=O)c1cc2cc([18F])ccc2[nH]c1=O [(R)-[^18F]2] |  |  |  |  | 2.51 ± 0.11 | 0.5 ± 0.1 % per 100 µg protein |  | logP [2]: negative
3 | C[C@H](Nc1ccc(C#N)n(C)c1=O)c1cc2cc(F)ccc2[nH]c1=O [(S)-2, (S)-5-[{1-(6-Fluoro-2-oxo-1,2-dihydroquinoline-3-yl)ethyl}amino]-1-methyl-6-oxo-1,6-dihydropyridine-2-carbonitrile] | 95 (93−97) % | 33 (30−35) % | 5.6 (4.0−7.2) | 0.102 µM |  |  | no decomposition | 
4 | C[C@H](Nc1ccc(C#N)n(C)c1=O)c1cc2cc([18F])ccc2[nH]c1=O [(S)-[^18F]2] |  |  |  |  | 2.51 ± 0.11 | 0.9 ± 0.2 % per 100 µg protein |  | cellular uptake (U87-WT cells): 1.2 ± 0.7 % per 100 µg protein; fold higher cellular uptake than (R)-[^18F]2 (U87-mIDH cells): approx. 2 fold
5 | N#Cc1ccc(NCc2cc3cc(F)ccc3[nH]c2=O)cc1OCC[18F] [[^18F]5] |  |  |  |  | 2.72 ± 0.06 | 3.2 ± 0.6 % per 100 µg protein |  | cellular uptake (U87-WT cells): 3.7 ± 0.6 % per 100 µg protein; logP ([2]; read-out: logP): 2.77 ± 0.03
6 | COc1cc(NCc2cc3cc(Cl)ccc3[nH]c2=O)ccc1C#N [compound 3] |  |  |  |  |  |  |  | Selectivity (ratio of biochemical IC50 values for mIDH1R132H and the wildtype enzyme) (mIDH1R132H [4]): > 700
7 | COc1cc(NCc2cc3cc(F)ccc3[nH]c2=O)ccc1C#N [compound 4, 4-{[(6-Fluoro-2-oxo-1,2-dihydroquinolin-3-yl)methyl]amino}-2-methoxybenzonitrile] | 98 (96−100) % | 1.8 (0.6−3.0) % | 2.8 (2.5−3.0) | 0.713 µM |  |  | less than 10% | fold lower potency than (S)-2 in functional assays (mIDH1R132H [1]): roughly 7 fold
8 | N#Cc1ccc(NCc2cc3cc(F)ccc3[nH]c2=O)cc1OCCF [compound 5, 4-(((6-Fluoro-2-oxo-1,2-dihydroquinolin-3-yl)methyl)amino)-2-(2-fluoroethoxy)benzonitrile] | 41 (36−45) % | 3 (2−3) % | 2.1 (1.6−2.7) | 8.28 µM |  |  | less than 10% | 
9 | CC(Nc1ccc(C#N)n(C)c1=O)c1cc2cc(F)ccc2[nH]c1=O (centres unmarked) [mIDH-23] |  |  |  |  |  |  |  | IC50 (mIDH1R132H [4]; biochemical assays, read-out: IC50 (reported potency for inhibition of mIDH1R132H)): 0.023 µM; Selectivity (ratio of biochemical IC50 values for mIDH1R132H and the wildtype enzyme) (mIDH1R132H [4]): > 400

From article PMC11356819 (Molecules, 2024)
